Among the data in PubChem BioAssay (NCI) are TGI values, retold here.

Each structure is given as a SMILES string.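 Each compound was tested at five concentrations against cells in 96-well plates for 48 hours. TGI marks complete inhibition of growth.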 Bounds are passed on as bounds.

Experiment in all cases: DTP human tumour cell line panel, 48 h
Test [1] relates to CAKI-1 renal.
Test [2] deals with NCI-H226 lung.
Test [3] deals with COLO 205 colon.
Test [4] relates to UACC-257 melanoma.
For test [5], the system named is SNB-75 CNS.
In test [6] the test system is RPMI-8226 leukemia.
Test [7] concerns KM12 colon.
Test [8] has as its system ACHN renal.
Test [9] relates to SR leukemia.
Test [10] concerns RXF 393 renal.
The subject of test [11] is MOLT-4 leukemia.
In test [12] the test system is HT29 colon.
The test system of test [13] is HL-60(TB) leukemia.
The subject of test [14] is HOP-62 NSCLC.
In test [15] the test system is DU-145 prostate.
Test [16] has as its system SF-539 CNS.

Turning to `COC(=O)CCC(C)[C@H]1CCC2C3C(C[C@H](OC(C)=O)[C@@]21C)[C@@]1(C)CCC2(C[C@H]1C[C@H]3OC(C)=O)OOC1(CCCCC1)OO2` (stereo partly drawn), the concentration for total growth inhibition (TGI) (in general, the concentration giving total growth inhibition) in [1] is > 100 µM; in [2], > 100 µM; in test [3] it was > 100 µM; in test [4], > 100 µM; in [5], 79.3 µM; in [6], 6.43 µM. The TGI in test [7] is > 100 µM; in test [8] it was 77.3 µM; in [9], > 100 µM; in test [10], > 100 µM; in [11], > 100 µM; in test [12], > 100 µM. Moreover, the TGI is > 100 µM in test [13], 8.31 µM in [14], > 100 µM in test [15] and > 100 µM in [16].
As to `CCCc1cc(-c2ccc(-c3cc(CCC)c(C=O)[nH]3)s2)[nH]c1C=O`, the TGI in [1], in test [2], in [3], in [4], in test [5] and in test [6] was > 100 µM each time. Also, the TGI is > 100 µM in test [7]; > 100 µM in test [8]; > 100 µM in test [9]; > 87.9 µM in test [10]; > 100 µM in test [11]; > 19.9 µM in test [12]. Also, the TGI in test [13] was > 48.8 µM; in [14], > 100 µM; in test [15], > 100 µM; in test [16], > 100 µM.
In the case of `CC1=C(C)C(=O)C(C2=C(C3=CC(=O)C(C)=C(C)C3=O)C(=O)c3ccccc3C2=O)=CC1=O`, the TGI turned out to be 5.66 µM in [1]; 21 µM in test [2]; 3.93 µM in test [3]; 4.22 µM in test [4]; 19.6 µM in test [5]; 18 µM in test [6]. Besides, the TGI in [7] stood at 11.1 µM; in test [8] it was 6.71 µM; in [9], 14.1 µM; in test [10], 3.38 µM; in test [11], 5.3 µM; in [12], 5.47 µM. The TGI in test [13] came to 1.11 µM; in test [14], 31.8 µM; in test [15], 8.06 µM; in [16] it was 10.5 µM.
Regarding `COc1ccc(N2C(=O)C3c4[nH]c5ccc(OCc6ccccc6)cc5c4C4CCC(C(C)C)CC4C3C2=O)cc1` (stereo not drawn), the TGI in test [1] is > 59.6 µM; in [2] it was 42.9 µM; in test [3], > 100 µM; in test [4], > 100 µM; in test [5], 10.4 µM; in test [6], > 100 µM. In addition, the TGI was > 100 µM in test [7]; > 30.4 µM in test [8]; 22.9 µM in test [9]; 32.9 µM in test [10]; > 71.7 µM in test [11]; > 100 µM in [12]. Also, the TGI in test [13] was 23.9 µM; in test [14], 36.4 µM; in [15], > 100 µM; in test [16], 23.5 µM.
For the molecule `COc1ccccc1Cn1[nH]c(=O)c2cc([N+](=O)[O-])ccc21`, the TGI in [1], in [2], in test [3], in test [4], in test [5] and in test [6] was > 100 µM in each case. Moreover, the TGI in test [7] is > 100 µM; in [8], > 100 µM; in [9], > 100 µM; in [10] it was 82.6 µM; in [11] it was > 100 µM; in [12], > 100 µM. Moreover, the TGI in test [13], in test [14], in [15] and in [16] was > 100 µM throughout.
As for `CC(C)(C)N=c1n(C(C)(C)C)oc(=O)n1-c1ccccc1`, the TGI in test [1], in test [2], in test [3], in test [4], in [5] and in test [6] was > 50 µM each time. The TGI in test [7], in [8], in test [9], in test [10], in test [11] and in test [12] was > 50 µM throughout. In addition, the TGI in test [13], in test [14], in test [15] and in test [16] was > 50 µM in each case.
As to `CC1(C)CC2(C)ON=C(c3ccccc3)N2c2ccccc2N1` (stereo not drawn), the TGI in test [1] was found to be 60.2 µM; in [2], 42.8 µM; in test [3] it was 45.9 µM; in [4], 58.3 µM; in [5], 94.9 µM; in test [6], 93 µM. In addition, the TGI in [7] was > 100 µM; in test [8], 68.8 µM; in test [9], > 100 µM; in test [10], 54.5 µM; in [11], 75.6 µM; in [12], 29.9 µM. The TGI in test [13] is 56.4 µM; in [14] it was 37 µM; in test [15], > 100 µM; in test [16], 40.1 µM.
As for `O=c1oc2c(ccc3c(O)cccc32)c2c1CCCC2`, the TGI in test [1] was > 100 µM; in test [2], > 100 µM; in test [3], > 100 µM; in [4], > 100 µM; in test [5], 19.9 µM; in test [6], > 100 µM. The TGI in test [7] was > 100 µM; in test [8], > 100 µM; in test [9], > 100 µM; in test [10] it was 39.8 µM; in test [11], > 100 µM; in test [12] it was > 100 µM. Moreover, the TGI was > 100 µM in test [13], 48.4 µM in test [14], > 100 µM in test [15] and > 100 µM in [16].
